This assay has as its target T1, MDM2 (RING protein) (Homo sapiens, UniProt Q00987).
T1 construct: MDM2 RING protein
Description: isothermal titration calorimetry (auto-iTC200, one-site fit). The format is binding. For orientation: In ITC the heat of successive injections is recorded.

Structures are written as SMILES.

T1 sequence (Q00987 whole entry): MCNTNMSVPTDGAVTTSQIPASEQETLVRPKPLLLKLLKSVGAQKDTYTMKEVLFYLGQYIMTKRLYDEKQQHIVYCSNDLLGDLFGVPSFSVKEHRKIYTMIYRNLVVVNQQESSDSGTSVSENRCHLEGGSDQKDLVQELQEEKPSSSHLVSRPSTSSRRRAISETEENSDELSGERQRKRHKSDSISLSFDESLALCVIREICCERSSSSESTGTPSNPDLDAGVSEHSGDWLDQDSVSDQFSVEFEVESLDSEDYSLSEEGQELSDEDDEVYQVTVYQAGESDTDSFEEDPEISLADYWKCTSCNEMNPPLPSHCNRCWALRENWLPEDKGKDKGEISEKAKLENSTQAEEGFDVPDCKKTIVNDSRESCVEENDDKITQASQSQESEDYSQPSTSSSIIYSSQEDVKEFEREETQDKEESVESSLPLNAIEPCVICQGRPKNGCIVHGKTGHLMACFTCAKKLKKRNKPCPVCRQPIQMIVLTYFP

The term Kd denotes the equilibrium constant for the complex coming apart. A lower Kd goes with a tighter complex. The compound `Cc1cc2c(C(C)C)c(O)c(O)c(C=O)c2c(O)c1-c1c(C)cc2c(C(C)C)c(O)c(O)c(C=O)c2c1O` [MX11, gossypol] gave a Kd of 5.21 µM. This lies in the single-digit micromolar range.
